Test results taken from BigSolDB 2.1.

COC(=O)/C=C(\C)N[C@@H](C(=O)[O-])c1ccc(O)cc1.[K+]
Conditions | solubility (mole fraction)
in 2-pentanol, 293.25 K | 6.22e-05
in 2-pentanol, 298.28 K | 7.86e-05
in 2-pentanol, 303.35 K | 9.99e-05
in 2-pentanol, 308.19 K | 0.000117
in 2-pentanol, 313.15 K | 0.000141
in 2-pentanol, 318.29 K | 0.000169
in 2-pentanol, 323.15 K | 0.000196
in 2-pentanol, 328.34 K | 0.000233
in 2-pentanol, 333.05 K | 0.000267
in 2-pentanol, 338.24 K | 0.00031
in 2-pentanol, 343.26 K | 0.000354
in ethanol, 293.25 K | 0.000405
in ethanol, 298.26 K | 0.000437
in ethanol, 303.25 K | 0.000478
in ethanol, 308.19 K | 0.000519
in ethanol, 313.09 K | 0.00056
in ethanol, 318.26 K | 0.000629
in ethanol, 323.11 K | 0.000681
in ethanol, 328.18 K | 0.000753
in ethanol, 333.41 K | 0.000834
in ethanol, 338.31 K | 0.000916
in ethanol, 343.35 K | 0.00104
in isopropanol, 293.25 K | 5.74e-05
in isopropanol, 298.23 K | 6.38e-05
in isopropanol, 303.05 K | 7.22e-05
in isopropanol, 308.41 K | 8.4e-05
in isopropanol, 313.15 K | 9.66e-05
in isopropanol, 318.26 K | 0.000112
in isopropanol, 323.15 K | 0.00013
in isopropanol, 328.19 K | 0.00015
in isopropanol, 333.35 K | 0.000173
in isopropanol, 338.27 K | 0.000198
in isopropanol, 343.25 K | 0.000225
in methanol, 293.15 K | 0.00346
in methanol, 298.22 K | 0.0037
in methanol, 303.15 K | 0.00396
in methanol, 308.19 K | 0.00424
in methanol, 313.35 K | 0.00454
in methanol, 318.27 K | 0.00485
in methanol, 323.35 K | 0.00519
in methanol, 328.16 K | 0.00552
in methanol, 333.35 K | 0.006
in n-butanol, 293.15 K | 9.97e-05
in n-butanol, 298.31 K | 0.00011
in n-butanol, 302.95 K | 0.000122
in n-butanol, 308.19 K | 0.000139
in n-butanol, 312.95 K | 0.000158
in n-butanol, 318.16 K | 0.000181
in n-butanol, 323.25 K | 0.000207
in n-butanol, 328.29 K | 0.000237
in n-butanol, 333.17 K | 0.000268
in n-butanol, 338.32 K | 0.000304
in n-butanol, 342.95 K | 0.000339
in n-pentanol, 293.05 K | 8.48e-05
in n-pentanol, 298.25 K | 0.000102
in n-pentanol, 303.25 K | 0.000119
in n-pentanol, 308.19 K | 0.000134
in n-pentanol, 313.07 K | 0.000152
in n-pentanol, 318.26 K | 0.00017
in n-pentanol, 323.25 K | 0.00019
in n-pentanol, 328.17 K | 0.000209
in n-pentanol, 333.25 K | 0.000226
in n-pentanol, 338.13 K | 0.000252
in n-pentanol, 343.35 K | 0.000279
in n-propanol, 293.15 K | 0.000178
in n-propanol, 298.23 K | 0.000191
in n-propanol, 303.05 K | 0.000206
in n-propanol, 308.18 K | 0.000228
in n-propanol, 313.05 K | 0.000256
in n-propanol, 318.29 K | 0.00028
in n-propanol, 323.05 K | 0.000306
in n-propanol, 328.21 K | 0.000345
in n-propanol, 333.25 K | 0.000382
in n-propanol, 338.34 K | 0.000427
in n-propanol, 343.35 K | 0.000476
in sec-butanol, 293.35 K | 3.51e-05
in sec-butanol, 298.24 K | 4.38e-05
in sec-butanol, 303.05 K | 5.87e-05
in sec-butanol, 308.17 K | 6.64e-05
in sec-butanol, 313.05 K | 8.11e-05
in sec-butanol, 318.36 K | 9.62e-05
in sec-butanol, 323.23 K | 0.000113
in sec-butanol, 328.26 K | 0.000132
in sec-butanol, 333.15 K | 0.000151
in sec-butanol, 338.28 K | 0.000174
in sec-butanol, 343.23 K | 0.000197
